Data taken from ChEMBL document CHEMBL1138167, “Asymmetric synthesis of the L-fuco-nojirimycin, a nanomolar alpha-L-fucosidase inhibitor” (Bioorg Med Chem Lett, 2006).

Biological target: T1, Tissue alpha-L-fucosidase (Bos taurus, UniProt Q2KIM0)
T1 sequence (Q2KIM0 whole entry): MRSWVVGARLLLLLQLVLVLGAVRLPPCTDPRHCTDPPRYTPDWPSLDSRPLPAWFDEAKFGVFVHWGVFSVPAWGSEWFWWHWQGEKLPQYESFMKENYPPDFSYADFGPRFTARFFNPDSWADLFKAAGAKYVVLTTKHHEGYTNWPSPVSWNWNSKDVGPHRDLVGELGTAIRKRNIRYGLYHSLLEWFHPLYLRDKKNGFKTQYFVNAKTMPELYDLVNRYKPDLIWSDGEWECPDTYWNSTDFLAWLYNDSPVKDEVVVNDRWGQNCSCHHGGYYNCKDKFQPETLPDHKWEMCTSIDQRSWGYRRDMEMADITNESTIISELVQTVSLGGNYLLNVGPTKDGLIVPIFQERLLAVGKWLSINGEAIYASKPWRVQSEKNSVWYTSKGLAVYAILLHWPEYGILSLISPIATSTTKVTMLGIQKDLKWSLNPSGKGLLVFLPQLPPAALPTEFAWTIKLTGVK
Test: Inhibition of bovine alpha-L-fucosidase

| IC50 | Ki | Structure (SMILES) |
| --- | --- | --- |
| 5 nM | 3 nM | C[C@@H]1NC[C@@H](O)[C@H](O)[C@@H]1O [DEOXYFUCONOJIRIMYCIN] |
|  | 13000 nM | C[C@H]1N[C@@H](S(=O)(=O)O)[C@H](O)[C@@H](O)[C@H]1O |
|  | 3000 nM | C[C@H]1NC(O)[C@H](O)[C@@H](O)[C@H]1O (some centres not stated) |
|  | 1 nM | C[C@@H]1N[C@H](S(=O)(=O)O)[C@@H](O)[C@H](O)[C@@H]1O |
|  | 660000 nM | C[C@H]1NC[C@H](O)[C@@H](O)[C@H]1O |
|  | 1 nM | C[C@@H]1NC(O)[C@@H](O)[C@H](O)[C@@H]1O (some centres not stated) |
